The values that follow are results of earlier work, collected in patent US20190134140A1, “ORALLY ADMINISTERED COMPOSITION FOR TREATING CYSTIC FIBROSIS, COPD, ASTHMA AND OTHER INFLAMMATORY CONDITIONS” (priority 2017, published 2019).

Data set [1] concerns the target dF508 (Homo sapiens, UniProt P13569, DEL508-508).
For data set [2], the system named is ciliary beat frequency.

SMILES strings stand for the structures. Like-named read-outs stand apart in the source and are kept apart here.

dF508, sequence (P13569 with tags, fused parts or gaps DEL508-508): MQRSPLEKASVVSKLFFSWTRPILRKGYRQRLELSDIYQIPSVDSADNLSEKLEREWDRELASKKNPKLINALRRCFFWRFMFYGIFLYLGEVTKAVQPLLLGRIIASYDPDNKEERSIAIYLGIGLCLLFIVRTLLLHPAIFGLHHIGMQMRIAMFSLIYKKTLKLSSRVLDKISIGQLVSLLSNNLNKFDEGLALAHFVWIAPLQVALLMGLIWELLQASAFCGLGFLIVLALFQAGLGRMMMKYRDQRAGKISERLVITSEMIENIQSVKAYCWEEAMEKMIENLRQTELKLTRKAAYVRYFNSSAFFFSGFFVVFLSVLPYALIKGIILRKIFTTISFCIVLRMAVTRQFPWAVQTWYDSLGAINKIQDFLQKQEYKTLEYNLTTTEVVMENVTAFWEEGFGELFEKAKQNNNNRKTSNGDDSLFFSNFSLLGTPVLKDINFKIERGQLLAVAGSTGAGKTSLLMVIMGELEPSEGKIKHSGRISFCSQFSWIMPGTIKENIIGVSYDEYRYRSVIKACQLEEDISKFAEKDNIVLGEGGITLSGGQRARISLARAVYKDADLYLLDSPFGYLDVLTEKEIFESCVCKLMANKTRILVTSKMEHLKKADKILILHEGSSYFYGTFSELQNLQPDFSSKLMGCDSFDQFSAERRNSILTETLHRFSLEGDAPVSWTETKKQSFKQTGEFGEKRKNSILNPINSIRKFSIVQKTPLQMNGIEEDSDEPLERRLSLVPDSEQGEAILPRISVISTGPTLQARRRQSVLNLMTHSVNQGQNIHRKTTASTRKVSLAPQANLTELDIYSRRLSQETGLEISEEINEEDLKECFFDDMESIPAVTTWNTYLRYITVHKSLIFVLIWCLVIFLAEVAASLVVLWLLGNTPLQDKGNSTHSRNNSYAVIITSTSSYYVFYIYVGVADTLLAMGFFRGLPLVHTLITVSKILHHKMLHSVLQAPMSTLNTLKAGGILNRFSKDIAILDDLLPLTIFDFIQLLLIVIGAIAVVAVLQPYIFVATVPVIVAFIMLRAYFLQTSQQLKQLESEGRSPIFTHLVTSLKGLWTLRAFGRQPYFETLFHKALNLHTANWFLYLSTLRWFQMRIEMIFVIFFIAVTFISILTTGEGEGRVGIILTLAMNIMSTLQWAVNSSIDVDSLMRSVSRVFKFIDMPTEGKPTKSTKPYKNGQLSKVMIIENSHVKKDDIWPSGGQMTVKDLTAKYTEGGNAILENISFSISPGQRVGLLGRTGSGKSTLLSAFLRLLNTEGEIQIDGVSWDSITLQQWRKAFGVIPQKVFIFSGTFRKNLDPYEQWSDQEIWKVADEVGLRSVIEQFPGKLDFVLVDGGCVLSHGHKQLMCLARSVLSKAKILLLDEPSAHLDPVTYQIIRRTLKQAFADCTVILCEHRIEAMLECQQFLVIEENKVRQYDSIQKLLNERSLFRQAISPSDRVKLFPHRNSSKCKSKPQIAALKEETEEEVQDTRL

As for `Oc1ccc(C=Cc2cc(O)cc(O)c2)cc1` [Resveratrol], the enhancement in permeability is, setting by setting: (combined with curcumin) 300%; (combined with piperine) 350%; (combined with quercetin) 310%.
In the case of `O=c1c(O)c(-c2ccc(O)c(O)c2)oc2cc(O)cc(O)c12` [Quercetin], the “activation of dF508” value in data set [1] is listed as “activate dF508”. In addition, the ciliary beat frequency result in data set [2] is on record as “increase ciliary beat frequency”.
